# Reference: US20130230543A1, “ENGINEERED POLYPEPTIDE CONJUGATES AND METHODS FOR MAKING THEREOF USING […]” (priority 2010, published 2013)
# Where two headings read alike, the source gives them in different places.
# Assays:
# Type in all cases: cell-based
# HT-29 cells = assay: In vitro cytotoxicity assay, CellTiter-Glo, 96 hours after treatment (mAb2 conjugates and free compounds); details: Homo sapiens, HT-29, target expressing, column also holds free compounds, read-out: HT-29 Antibody IC50
# Experimental: (§1) In vitro cytotoxicity assays were carried out using various antibodies, payloads (i.e., agent moieties), and amine donor units. For mAb2 (a chimeric IgG1 antibody), target expressing (A431, OVCAR3, BxPC3 and HT-29) or non-expressing (SW620) cells were seeded on white walled clear bottom plates at 2000 cells/well for 24 hours before treatment. […] Cell viability was determined by CellTiter-Glo® Luminescent Cell Viability Assay 96 (Promega, Madison Wis.) 96 hours after treatment. […] IC50 was calculated by Prism software.
# A431 cells = assay: as above; details: Homo sapiens, A-431, 96 h, read-out: A431 Antibody IC50 (nM)
# Experimental: as §1
# SW620 cells = assay: In vitro cytotoxicity assay, CellTiter-Glo, 96 hours after treatment, target non-expressing cells; details: read-out: SW620 Antibody IC50
# Experimental: as §1
# BxPC3 cells = assay: In vitro cytotoxicity assay, CellTiter-Glo, 96 hours after treatment (mAb2 conjugates and free compounds); details: BxPC3, target expressing, column also holds free compounds, read-out: BxPC3 Antibody IC50
# Experimental: as §1
Compound,IC50 (HT-29 cells),IC50 (A431 cells),"IC50 (SW620 cells; Homo sapiens, SW-620, values only for free compounds)",IC50 (BxPC3 cells),IC50 (SW620 cells; values only for free compounds)
"CC[C@H](C)[C@@H](C(CC(=O)N1CCCC1C(OC)[C@@H](C)C(=O)NC(Cc1ccccc1)c1nccs1)OC)N(C)C(=O)C(NC(=O)[C@H](C(C)C)N(C)C(=O)CNC(=O)C(C)CCCCN)C(C)C (stereo partly drawn) [Sample 29, AcLysGly-MMAD]",5.14 nM,8.42 nM,,,
"CO[C@H]1/C=C\C=C(/C)C(=O)NC2=CC(=O)C(NCCCCNC(=O)[C@H](CCCCN)NC(C)=O)=C(C[C@@H](C)C[C@H](OC)[C@H](O)[C@@H](C)/C=C(\C)[C@@H]1OC(N)=O)C2=O [Sample 26, AcLys-Putrescinyl-Geldanamycin]",,> 1000 nM,> 1000 nM,,
VC-PABC-MMAF [Sample 24],,,,427 nM,483 nM
